Reference: patent US20230174484A1, “ANTAGONISTS OF GPR39 PROTEIN” (Oregon Health & Science University, priority 2020, published 2023)
Where a name gives a salt, the structure may show the parent alone.

target: T1, human GPR39 receptor (Homo sapiens, UniProt O43194); test: Measurement of intracellular calcium response in PC3 cells (FLIPR), antagonism of the C3 agonist response; assay type: cell-based; conditions: functional pKi (modified Cheng-Prusoff), inhibition of the C3 (TC-G 1008) response at EC90, 30 μM ZnCl2, read-out: fpKi activity
T1 construct: PC3 Cells, Expressing the Endogenous Human GPR39 Receptor; endogenous in cells; host or cells: PC3 (human prostate adenocarcinoma) cells
T1 sequence (O43194 1-453): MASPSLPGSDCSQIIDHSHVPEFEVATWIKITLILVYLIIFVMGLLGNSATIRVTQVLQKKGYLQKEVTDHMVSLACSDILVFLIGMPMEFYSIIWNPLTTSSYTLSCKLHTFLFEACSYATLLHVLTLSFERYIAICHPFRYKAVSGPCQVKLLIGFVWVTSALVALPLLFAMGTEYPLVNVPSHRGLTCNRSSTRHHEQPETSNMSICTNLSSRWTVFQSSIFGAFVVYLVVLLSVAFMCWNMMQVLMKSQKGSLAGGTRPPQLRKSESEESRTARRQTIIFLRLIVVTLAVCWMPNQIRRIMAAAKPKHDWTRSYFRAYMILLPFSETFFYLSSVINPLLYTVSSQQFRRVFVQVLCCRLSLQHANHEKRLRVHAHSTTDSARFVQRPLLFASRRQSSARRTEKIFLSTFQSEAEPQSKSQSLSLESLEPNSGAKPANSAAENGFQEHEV
Summary of the method: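 PC3 cells with endogenous human GPR39 were loaded with Calcium-6 and read by FLIPR, with compounds tested in buffer with 30 μM final ZnCl2 and 0.32% DMSO. Peak Ca2+ signal was scored as % inhibition of the EC90 C3 response, fitted by four-parameter logistic. Functional pKi was derived via the modified Cheng-Prusoff equation.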

| Compound | Ki |
| --- | --- |
| O=C(Nc1ccc(C(=O)N2CCS(=O)(=O)CC2)c(N2CCC3(CCC3)C2)c1)C1CC1 [Example 65, N-[3-(6-azaspiro[3.4]octan-6-yl)-4-(1,1-dioxo-1,4-thiazinane-4-carbonyl)phenyl]cyclopropanecarboxamide] | ≤ 50.1 nM |
| O=C(Nc1ccc(C(=O)N2CCN(c3nccc4ccsc34)CC2)c(N2CCCCCC2)c1)C1CC1 [Example 33, N-[3-(azepan-1-yl)-4-(4-thieno[2,3-c]pyridin-7-ylpiperazine-1-carbonyl)phenyl]Cyclopropanecarboxamide] | 1260 to 6310 nM |
| CN1CCN(C(=O)c2ccc(NC(=O)C3CC3)cc2N2CCCCCC2)C(c2ccsc2)C1 (racemic) [Example 70c, N-(3-(azepan-1-yl)-4-(4-methyl-2-(thiophen-3-yl)piperazine-1-carbonyl)phenyl)cyclopropane carboxamide] | 63.1 to 251 nM |
| CN1CCN(C(=O)c2ccc(NC(=O)C3CC3)cc2N2CCCCCC2)C(Cc2ccccc2)C1 (stereo not shown) [Example 76, N-[3-(azepan-1-yl)-4-(2-benzyl-4-methylpiperazine-1-carbonyl)phenyl]Cyclopropanecarboxamide] | 63.1 to 251 nM |
| CCCN1CCn2c(cnc2-c2ccc(NC(=O)C3CC3)cc2N2CCCCCC2)C1 [Example 105, N-[3-(azepan-1-yl)-4-(7-propyl-6,8-dihydro-5H-imidazo[1,5-a]pyrazin-3-yl)phenyl]cyclopropanecarboxamide] | 63.1 to 251 nM |
| CN1CCN(c2ccc(CNC(=O)c3ccc(NC(=O)C4CC4)cc3N3CCCCCC3)cc2)CC1 [Example 56, 2-(azepan-1-yl)-4-(cyclopropanecarbonylamino)-N-[[4-(4-methylpiperazin-1-yl)phenyl]methyl]benzamide] | 1260 to 6310 nM |
| O=C(Nc1ccc(C(=O)N2CCN(Cc3ccccc3)CC2)c(N2CCCCCC2)c1)C1CC1 [Example 50, N-(3-(azepan-1-yl)-4-(4-benzylpiperazine-1-carbonyl)phenyl)cyclopropanecarboxamide] | 63.1 to 251 nM |
| CC1CCN(c2cc(NC(=O)C3CC3)ccc2C(=O)N2CCN(C)CC2c2ccccc2)C1 (single isomer, unassigned) [Example 64d, (2S, 3R) or (2R, 3S) or (2R, 3R) or (2S, 3S) N-[4-(4-methyl-2-phenylpiperazine-1-carbonyl)-3-(3-methylpyrrolidin-1-yl)phenyl] cyclopropanecarboxamide] | 316 to 1000 nM |
| O=C(Nc1ccc(C(=O)N2CCN(c3ccccc3)CC2)c(N2CCCCCC2)c1)C1CC1 [Example 52, N-(3-(azepan-1-yl)-4-(4-phenylpiperazine-1-carbonyl)phenyl)cyclopropanecarboxamide] | 63.1 to 251 nM |
| O=C(Nc1ccc(C(=O)N2CCC(F)(F)CC2)c(N2CCCC2)c1)C1CC1 [Example 59, N-[4-(4,4-difluoropiperidine-1-carbonyl)-3-pyrrolidin-1-ylphenyl]cyclopropanecarboxamide] | 63.1 to 251 nM |
| CN1CCN(C(=O)c2ccc(NC(=O)C3CC3)nc2N2CCCCC2)C(c2ccccc2)C1 (racemic) [Example 147, N-[5-(4-methyl-2-phenylpiperazine-1-carbonyl)-6-piperidin-1-ylpyridin-2-yl]cyclopropanecarboxamide] | 63.1 to 251 nM |
| CN1CCN(C(=O)c2ccc(NC(=O)C3CC3)cc2N2CCCC2)C(c2ccccc2)C1 (single isomer, unassigned) [Example 62d, 2R or 2S N-[4-(4-methyl-2-phenylpiperazine-1-carbonyl)-3-pyrrolidin-1-ylphenyl]cyclopropanecarboxamide hydrochloride] | 63.1 to 251 nM |
| COc1ccc(CN2CCN(C(=O)c3ccc(NC(=O)C4CC4)cc3N3CCCCCC3)CC2)cc1 [Example 30, N-(3-(azepan-1-yl)-4-(4-(4-methoxybenzyl)piperazine-1-carbonyl)phenyl) cyclopropanecarboxamide] | 316 to 1000 nM |
| O=C(Nc1ccc(C(=O)N2CCN(Cc3cccc(F)c3)CC2)c(N2CCCCCC2)c1)C1CC1 [Example 26, N-(3-(azepan-1-yl)-4-(4-(3-fluorobenzyl)piperazine-1-carbonyl)phenyl) Cyclopropanecarboxamide] | 63.1 to 251 nM |
| O=C(Nc1ccc(C(=O)N2CCN(Cc3cc[nH]n3)CC2)c(N2CCCCCC2)c1)C1CC1 [Example 23] | 316 to 1000 nM |
| Cc1noc(-c2ccc(C(=O)N3CCC(C(F)(F)F)CC3)c(N3CCCC3)c2)n1 [Example 152, [4-(3-methyl-1,2,4-oxadiazol-5-yl)-2-pyrrolidin-1-ylphenyl]-[4-(trifluoromethyl)piperidin-1-yl]methanone] | 316 to 1000 nM |
| Cc1nnc(-c2ccc(C(=O)N3CCC(F)(F)CC3)c(-n3ccc(C(F)(F)F)n3)c2)[nH]1 [Example 208] | ≤ 50.1 nM |
| CCCN1CCN(C(=O)c2ccc(NC(=O)C3CC3)cc2N2CCC(C)CC2)CC1 [Example 15, N-(3-(4-methylpiperidin-1-yl)-4-(4-propylpiperazine-1-carbonyl)phenyl) cyclopropanecarboxamide] | 63.1 to 251 nM |
| O=C(Nc1ccc(C(=O)N2CCS(=O)(=O)CC2)c(N2CCOC(C(F)(F)F)C2)c1)C1CC1 (racemic) [Example 186, N-[4-(1,1-dioxo-1,4-thiazinane-4-carbonyl)-3-[2-(trifluoromethyl)morpholinyl]phenyl]cyclopropanecarboxamide] | 316 to 1000 nM |
| CN1CCN(C(=O)c2ccc(NC(=O)C3CC3)cc2N2CCCCCC2)C(c2ccsc2)C1 (single isomer, unassigned) [Example 70a, N-(3-(azepan-1-yl)-4-(4-methyl-2-(thiophen-3-yl)piperazine-1-carbonyl)phenyl)cyclopropane carboxamide] | 1260 to 6310 nM |
| CCCN1CCN(C(=O)c2ccc(NC(=O)CC)cc2N2CCCCCC2)CC1 [Example 94, N-(3-(azepan-1-yl)-4-(4-propylpiperazine-1-carbonyl)phenyl)propionamide] | 316 to 1000 nM |
| O=C(Nc1ccc(C(=O)N2CCC3(CC2)COC3)c(N2CCCC2)c1)C1CC1 [Example 219, N-[4-(2-oxa-7-azaspiro[3.5]nonane-7-carbonyl)-3-pyrrolidin-1-ylphenyl]cyclopropanecarboxamide] | 63.1 to 251 nM |
| CNC(=O)N1CCN(C(=O)c2ccc(NC(=O)C3CC3)cc2N2CCCC2)C(c2ccccc2)C1 (stereo not shown) [Example 217, 4-[4-(cyclopropanecarbonylamino)-2-pyrrolidin-1-ylbenzoyl]-N-methyl-3-phenylpiperazine-1-carboxamide] | 316 to 1000 nM |

Now from value to compound:

| Ki | Compound |
| --- | --- |
| 63.1 to 251 nM | CN1CCN(C(=O)c2ccc(NC(=O)C3CC3)nc2N2CCCC2)C(c2ccccc2)C1 (single isomer, unassigned) [Example 149a, (2R or 2S) N-[5-(4-methyl-2-phenylpiperazine-1-carbonyl)-6-pyrrolidin-1-ylpyridin-2-yl] cyclopropanecarboxamide] |
| 63.1 to 251 nM | CN1CCN(C(=O)c2ccc(-c3nnc(C4CC4)[nH]3)cc2N2CCCC2)C(c2ccccc2)C1 (racemic) [Example 151c, [4-(5-cyclopropyl-4H-1,2,4-triazol-3-yl)-2-pyrrolidin-1-ylphenyl]-(4-methyl-2phenylpiperazin-1-yl)methanone] |
| 316 to 1000 nM | C[C@@H]1C[C@@H](C)CN(c2cc(NC(=O)C3CC3)ccc2-c2ncc3n2CCN(C)C3)C1 (relative stereo) [Example 104a, N-[3-(3,5-dimethylpiperidin-1-yl)-4-(7-methyl-6,8-dihydro-5H-imidazo[1,5-a]pyrazin-3-yl)phenyl] cyclopropanecarboxamide] |
| 63.1 to 251 nM | CN1CCN(C(=O)c2ccc(NC(=O)C3CC3)nc2N2CCCC2)C(c2ccccc2)C1 (racemic) [Example 149c, N-[45-(4-methyl-2-phenylpiperazine-1-carbonyl)-6-pyrrolidin-1-ylpyridin-2-yl]cyclopropanecarboxamide] |
| ≤ 50.1 nM | CN1CCN(C(=O)c2ccc(NC(=O)C3CC3)cc2N2CCCC2)C(c2cccs2)C1 (single isomer, unassigned) [Example 86b, N-[4-(4-methyl-2-thiophen-2-ylpiperazine-1-carbonyl)-3-pyrrolidin-1-ylphenyl]cyclopropanecarboxamide] |
| 63.1 to 251 nM | O=C(Nc1ccc(C(=O)N2CCS(=O)(=O)CC2)c(N2CCC(C(F)(F)F)C2)c1)C1CC1 (racemic) [Example 183c, N-[4-(1,1-dioxo-1,4-thiazinane-4-carbonyl)-3-[3-(trifluoromethyl)pyrrolidin-1-yl]phenyl]cyclopropanecarboxamide] |
| 63.1 to 251 nM | CN1CCN(C(=O)c2ccc(NC(=O)C3CC3)nc2N2CCC(F)(F)C2)C(c2ccccc2)C1 (single isomer, unassigned) [Example 148a, (2R or 2S) N-[6-(3,3-difluoropyrrolidin-1-yl)-5-(4-methyl-2-phenylpiperazine-1-carbonyl)pyridin-2-yl]cyclopropanecarboxamide] |
| ≤ 50.1 nM | O=C(Nc1ccc(C(=O)N2CCS(=O)(=O)CC2)c(N2CCC(C(F)(F)F)C2)c1)C1CC1 (single isomer, unassigned) [Example 183a, N-[4-(1,1-dioxo-1,4-thiazinane-4-carbonyl)-3-[3r or 3S-(trifluoromethyl)pyrrolidin-1-yl]phenyl]cyclopropanecarboxamide] |
